This is an account of results in ChEMBL document CHEMBL1126412, “RP 70676: A potent systematically available inhibitor of acyl-CoA:cholesterol O-acyl transferase (ACAT)” (Bioorg Med Chem Lett, 1992).

As usually defined, the IC50 is the concentration at which inhibition is half-maximal. A higher IC50 goes with weaker potency in that assay.

Experiment [1] has as its target T1, Sterol O-acyltransferase 1 (Rattus norvegicus, UniProt O70536).
T1 sequence (O70536 whole entry): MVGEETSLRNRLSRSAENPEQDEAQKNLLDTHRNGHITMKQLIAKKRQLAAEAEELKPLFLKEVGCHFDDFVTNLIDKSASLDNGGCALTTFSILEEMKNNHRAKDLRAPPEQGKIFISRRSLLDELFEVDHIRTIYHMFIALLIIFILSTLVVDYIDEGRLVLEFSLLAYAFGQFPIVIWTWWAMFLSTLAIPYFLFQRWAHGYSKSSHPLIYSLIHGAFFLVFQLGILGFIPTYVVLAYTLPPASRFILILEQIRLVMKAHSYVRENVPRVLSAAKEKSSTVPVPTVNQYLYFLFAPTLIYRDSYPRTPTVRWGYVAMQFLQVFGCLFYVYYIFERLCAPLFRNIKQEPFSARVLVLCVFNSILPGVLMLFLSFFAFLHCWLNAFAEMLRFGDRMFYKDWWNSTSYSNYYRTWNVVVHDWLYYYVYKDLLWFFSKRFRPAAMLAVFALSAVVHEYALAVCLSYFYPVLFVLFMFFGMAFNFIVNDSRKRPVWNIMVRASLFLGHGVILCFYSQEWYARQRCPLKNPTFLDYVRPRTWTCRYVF
In words: Concentration required for the inhibition of cholesterol O-acyl transferase (ACAT) from rat liver.

In experiment [2] the target is T2, Acyl-CoA:cholesterol acyltransferase (Oryctolagus cuniculus, UniProt Q95214).
T2 sequence (Q95214 whole entry): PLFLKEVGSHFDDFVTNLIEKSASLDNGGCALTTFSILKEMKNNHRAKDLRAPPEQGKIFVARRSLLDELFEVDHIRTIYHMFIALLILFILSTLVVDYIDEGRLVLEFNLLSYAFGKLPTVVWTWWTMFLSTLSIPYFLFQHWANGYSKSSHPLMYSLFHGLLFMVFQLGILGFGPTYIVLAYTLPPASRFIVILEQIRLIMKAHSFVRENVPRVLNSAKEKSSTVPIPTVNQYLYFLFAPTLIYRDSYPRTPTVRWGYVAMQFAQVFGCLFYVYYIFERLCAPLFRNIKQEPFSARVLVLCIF
In words: Concentration required for the inhibition of cholesterol O-acyl transferase (ACAT) from cholesterol fed rabbit liver.

The species named for experiment [3] is Oryctolagus cuniculus. Put plainly: Percent change of free cholesterol levels in thoracic aorta of NZW rabbits from control. The experiment is classed as functional.
Experiment [4] is filed under the species Oryctolagus cuniculus. Put plainly: Percent change of cholesterol esters level in abdominal aorta of NZW rabbits from control. The experiment is classed as functional.
Experiment [5] is filed under the species Oryctolagus cuniculus. In words: Percent change of free cholesterol level in abdominal aorta of NZW rabbits from control. The experiment is classed as functional.
For experiment [6], the species on record is Oryctolagus cuniculus. Put plainly: Evaluated for the reduction of plasma cholesterol level in NZW rabbits with 0.25% cholesterol in diet. The experiment is classed as functional.
Experiment [7] is filed under the species Oryctolagus cuniculus. In words: Percent change of plasma cholesterol level in NZW rabbits from control. The experiment is classed as functional.
For experiment [8], the species on record is Oryctolagus cuniculus. In words: Percent change of cholesterol ester level in thoracic aorta of NZW rabbits form control. The experiment is classed as functional.
For experiment [9], the species on record is Oryctolagus cuniculus. Put plainly: Percent change of plasma cholesterol level in NZW rabbits form control. The experiment is classed as functional.
The species named for experiment [10] is Oryctolagus cuniculus. Put plainly: Percent change of free cholesterol levels in thoracic aorta of NZW rabbits form control. The experiment is classed as functional.
For experiment [11], the species on record is Oryctolagus cuniculus. In words: Percent change of cholesterol ester level in thoracic aorta of NZW rabbits from control. The experiment is classed as functional.
The species named for experiment [12] is Oryctolagus cuniculus. Put plainly: Percent change of free cholesterol level in abdominal aorta of NZW rabbits form control. The experiment is classed as functional.
The species named for experiment [13] is Oryctolagus cuniculus. Put plainly: Percent change of cholesterol esters level in abdominal aorta of NZW rabbits form control. The experiment is classed as functional.
The species named for experiment [14] is Oryctolagus cuniculus. Put plainly: Evaluated for the reduction of plasma cholesterol level in NZW rabbits with 5% cholesterol in diet; AUC; mM.days. The experiment is classed as functional.
For experiment [15], the target named is T3, Sterol O-acyltransferase 1 (Cricetulus griseus, UniProt Q60457).
T3 sequence (Q60457 whole entry): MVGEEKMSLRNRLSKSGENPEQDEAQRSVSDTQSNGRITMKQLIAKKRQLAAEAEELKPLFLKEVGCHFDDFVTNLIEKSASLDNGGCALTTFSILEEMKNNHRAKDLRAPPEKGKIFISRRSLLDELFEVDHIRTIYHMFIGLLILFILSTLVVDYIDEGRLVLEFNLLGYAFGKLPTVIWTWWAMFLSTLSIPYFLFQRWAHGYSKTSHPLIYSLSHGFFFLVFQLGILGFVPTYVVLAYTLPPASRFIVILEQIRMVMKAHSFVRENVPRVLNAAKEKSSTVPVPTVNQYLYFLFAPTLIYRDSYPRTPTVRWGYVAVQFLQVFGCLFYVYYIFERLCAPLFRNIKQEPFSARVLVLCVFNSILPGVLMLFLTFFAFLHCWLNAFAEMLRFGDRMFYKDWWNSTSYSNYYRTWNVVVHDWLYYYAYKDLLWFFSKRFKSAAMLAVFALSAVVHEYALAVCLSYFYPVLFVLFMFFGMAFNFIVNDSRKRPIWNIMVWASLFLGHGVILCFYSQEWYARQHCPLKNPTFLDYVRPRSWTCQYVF
Put plainly: Concentration required for the inhibition of Cholesterol O-acyl transferase from hamster liver.

Consider `Cn1ccnc1S(=O)(=O)CCCSc1nc(-c2ccccc2)c(-c2ccccc2)[nH]1`, for which the figures for the IC50 in experiment [1] and in experiment [2] were 11 nM and 8000 nM, respectively.

Consider `Cn1ccnc1SCCCCSc1nc(-c2ccccc2)c(-c2ccccc2)[nH]1`, for which the IC50 was 38 nM in [1] and 180 nM in [2].

Turning to `c1ccc(-c2nc(SCCCCCn3cccn3)[nH]c2-c2ccccc2)cc1`, the IC50 in [1] stood at 24 nM; in experiment [2], 280 nM.

`c1ccc(-c2nc(SCCCCCCn3cccn3)[nH]c2-c2ccccc2)cc1`: the IC50 in [1] was determined as 48 nM; in [2], 590 nM.

Take `c1ccc(-c2nc(SCCCn3cccn3)[nH]c2-c2ccccc2)cc1`: the half-inhibitory concentration (IC50) in experiment [1] is 50 nM; in experiment [2], over 1000 nM.

`c1ccc(-c2nc(SCCCCCSc3ncc[nH]3)[nH]c2-c2ccccc2)cc1`: the results for the IC50 in experiment [1] and in experiment [2] were 44 nM and 880 nM, respectively.

In the case of `Cc1cc(C)n(CCCCCSc2nc(-c3ccccc3)c(-c3ccccc3)[nH]2)n1`, the Change in the experiment filed under Oryctolagus cuniculus [3] is under -36%; in the experiment filed under Oryctolagus cuniculus [4], under -40%; in the experiment filed under Oryctolagus cuniculus [5], under -27%; in the experiment filed under Oryctolagus cuniculus [7], under -40%; in the experiment filed under Oryctolagus cuniculus [8] it was under -40%; in the experiment listed under Oryctolagus cuniculus [9] it was under -46%. In addition, the Change in the experiment listed under Oryctolagus cuniculus [10] is on record as under -44%; in the experiment listed under Oryctolagus cuniculus [11] it was under -42%; in the experiment filed under Oryctolagus cuniculus [12], under -36%; in the experiment filed under Oryctolagus cuniculus [13] it was under -46%. Also, the AUC in the experiment listed under Oryctolagus cuniculus [6] came to 776 mM·days; in the experiment listed under Oryctolagus cuniculus [14], 1440 mM·days. Further, the IC50 in [15] was found to be 12 nM.

Take `Cn1ccnc1SCCCSc1nc(-c2ccccc2)c(-c2ccccc2)[nH]1`: the values for the IC50 in experiment [1] and in [2] were 14 nM and 970 nM, respectively.

`CCCCCCCN(CCCCCSc1nc(-c2ccccc2)c(-c2ccccc2)[nH]1)C(=O)Nc1ccc(F)cc1F` [LECIMIBIDE] gave an IC50 in experiment [1] of 10 nM.
